In PubChem BioAssay (NCI):
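Where inhibition never reached the appropriate level, the endpoint shown equals the highest concentration tested. Otherwise, values were interpolated linearly from a five-concentration, 48-hour dose response in 96-well plates. The concentration for 50% growth inhibition is given as GI50. TGI is the concentration that stops growth completely.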

Key:
Assay in all cases: DTP human tumour cell line panel, 48 h
[1] = system: HOP-92 NSCLC
[2] = system: HCT-15 colon
[3] = system: NCI-H226 lung
[4] = system: M14 melanoma
[5] = system: MALME-3M melanoma
[6] = system: OVCAR-4 ovarian
[7] = system: RXF 393 renal
[8] = system: SR leukemia
[9] = system: LOX IMVI melanoma
[10] = system: ACHN renal

Compound	TGI [1] [µM]	TGI [2] [µM]	TGI [3] [µM]	TGI [4] [µM]	TGI [5] [µM]	TGI [6] [µM]	TGI [7] [µM]	TGI [8] [µM]	TGI [9] [µM]	TGI [10] [µM]	GI50 [1] [µM]	GI50 [2] [µM]	GI50 [3] [µM]	GI50 [4] [µM]	GI50 [5] [µM]	GI50 [6] [µM]	GI50 [7] [µM]	GI50 [8] [µM]	GI50 [9] [µM]	GI50 [10] [µM]
C[N+]1(CCC(=O)c2ccccc2)CCC2CCC(C2)C1 (stereo not given)	> 100	> 100	> 100	> 100	> 100	> 100	> 100	> 100	> 100	> 100										
CCOC(=O)c1c(-c2cccc(Cl)c2)c(C(=O)OC)c(C)c2sc(C=O)nc12	34.2	36.9	44.2	31.4	38	40.3	44.6		28.9	31.4										
O=C(Nc1ccc(-n2ccc3c(NC(=O)c4ccccc4)nccc32)cc1)Nc1cccc(C(F)(F)F)c1	11.7	6.55	29.8	15.7	31.2	10.5	7.64	4.28	10.9	19.6	2.59	1.03	14.3	3.83	13.7	2.65	2.24	1.49	2.38	5.72
O=C(/C=C1\N=C(c2ccccc2)N(c2nc3c(Cl)cc(Cl)cc3s2)C1=O)/C=C/c1ccccc1	> 100	> 100		> 100	> 100	> 100	> 100		> 100	> 100										
N#Cc1ccccc1C#C/C=C\C#Cc1ccccc1N	> 78.2		> 38.5	11.3	40.2	> 100	> 23.7	2.52	> 35.4	> 38.3	2.45	3.85	6.6	0.243	2.86	16.1	7	0.745	4.04	7.88
CC1=C[C@@H](C)C[C@]2(C)CC[C@H](O2)[C@]23CC[C@](CO)(C[C@H](O2)[C@@H]2O[C@@](C)(CC2=O)[C@@H](O)[C@H]2CC[C@@]4(CCC[C@@H](O4)[C@H](C)C(=O)O[C@H]4C[C@H]([C@]5(O)OCC[C@H](C)[C@@H]5O)O[C@H]4C=C1)O2)O3	0.00697	> 10		> 10	0.196	> 10	0.0801	> 10	0.155	> 10										
CN(C)C(=O)OC1=CC2CCC(C1)N2C (stereo not given)	> 100	> 100	> 100	> 100	> 100	> 100	> 100	> 100	> 100	> 100										
CC(=O)Nc1ccc(C(=O)NN2C(=O)C(Cl)C2c2cccc([N+](=O)[O-])c2)cc1 (stereo not given)	> 100		> 100		> 100			> 100		> 100										
CS(C)(=O)=Nn1c(=O)n2n(c1=O)C1c3ccccc3C2c2ccccc21	> 100	> 100		> 100	> 100		> 100	> 100	> 100	> 100										
COc1ccc(-c2nn(-c3ccc(NC(=O)c4cc(Cl)cc(Cl)c4)cc3)cc2-c2ccncc2)cc1Cl		> 100	> 100	9.08		> 100	1.23	> 100	> 100	> 100		1.77	> 100	2.4		> 100	0.362	2.72	3.2	> 100
COC(=O)c1cc(NC(=O)c2cc(NC(=O)Cc3c[nH]c4ccccc34)cn2C)cn1C		> 100	> 100	> 100	77.2	> 100	> 100		> 100	> 100										
Cc1ccc2nc(-c3ccc(NC(=O)c4ccc(N)cc4)c(S(=O)(=O)O)c3)sc2c1	> 100	> 100	> 100	> 100	> 100	> 100	> 100		> 100	> 100										
COc1cccc(/C=N/[N-]C(N)=O)c1[O-].[Ni+2].[OH3+]	0.934	1.17	2.11	2.08	2.2	1.01	0.8	2.64	2.15	2.07										
Cc1oc(N)c(S(=O)(=O)c2cc3ccccc3n(O)c2=N)c1C	> 100	> 100	> 100	> 100	> 100	> 100			> 100	> 100										
CCOCC(=O)N(C)c1cccc2c3c(n(C)c12)CCCCC3	> 100	> 100	> 100		> 100	> 100	> 100		> 100											
Cn1c2[n+](c3nc(N)[nH]c(=O)c31)C1OC(C2)C(O)C1O (stereo not given)	> 100		> 100	> 100	> 100	> 100	> 100	> 100	> 100	> 100										
COc1cc(C2c3cc4c(cc3[C@@H](Nc3ccc(Oc5ccccc5)cc3)C3COC(=O)[C@H]23)OCO4)cc(OC)c1O (stereo not given in full)		19.7	7.9		> 100	> 100	> 100		> 100											
O=C(CC(c1ccccc1)C1C(=O)NC(=S)NC1=O)c1ccc([N+](=O)[O-])cc1 (stereo not given)	> 100	> 100	> 100	> 100	> 100	> 100		> 100	> 100	> 100										
